The values that follow are results of earlier work, collected in US12514832B2, “Methods for using low-dose colchicine after myocardial infarction” (INSTITUT DE CARDIOLOGIE DE MONTREAL, priority 2019, dated 2026).

The conditions of data set [1]: CIRT; cited from earlier work.
A further data set addresses interleukin-13 (Homo sapiens, UniProt P01584). The following applies: CANTOS; cited from earlier work.

In the case of `CN(Cc1cnc2nc(N)nc(N)c2n1)c1ccc(C(=O)N[C@@H](CCC(=O)O)C(=O)O)cc1` [methotrexate], the “effect on cardiovascular outcomes or plasma markers of inflammation (in words)” value in data set [1] is reported as “did not affect cardiovascular outcomes or plasma markers of inflammation”.
Consider “canakinumab: injectable monoclonal antibody; anti-inflammatory studied in CANTOS”, for which the “incidence of fatal infections versus placebo (in words)” value in the data set with interleukin-13 is “slightly higher incidence of fatal infections”.
